Measurements reported in PubChem BioAssay (NCI).
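48-hour exposure; five concentrations; linearly interpolated endpoints. Here, GI50 denotes the concentration required for 50% inhibition of growth. TGI marks complete inhibition of growth.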

How the values were obtained:
Experiment in all cases: NCI-60 cell line screen, 48 h
SK-OV-3 ovarian = test system: SK-OV-3 ovarian
BT-549 breast = test system: BT-549 breast
MCF7 breast = test system: MCF7 breast
NCI-H522 lung = test system: NCI-H522 lung
SW-620 colon = test system: SW-620 colon
NCI/ADR-RES ovarian = test system: NCI/ADR-RES ovarian
U251 CNS = test system: U251 CNS
HT29 colon = test system: HT29 colon
DU-145 prostate = test system: DU-145 prostate
NCI-H460 lung = test system: NCI-H460 lung

Row | SMILES | TGI (SK-OV-3 ovarian) [µM] | TGI (BT-549 breast) [µM] | TGI (MCF7 breast) [µM] | TGI (NCI-H522 lung) [µM] | TGI (SW-620 colon) [µM] | TGI (NCI/ADR-RES ovarian) [µM] | TGI (U251 CNS) [µM] | TGI (HT29 colon) [µM] | TGI (DU-145 prostate) [µM] | TGI (NCI-H460 lung) [µM] | GI50 (SK-OV-3 ovarian) [µM] | GI50 (BT-549 breast) [µM] | GI50 (MCF7 breast) [µM] | GI50 (NCI-H522 lung) [µM] | GI50 (SW-620 colon) [µM] | GI50 (NCI/ADR-RES ovarian) [µM] | GI50 (U251 CNS) [µM] | GI50 (HT29 colon) [µM] | GI50 (DU-145 prostate) [µM] | GI50 (NCI-H460 lung) [µM]
1 | Clc1ccc(/C(=C/c2ccccc2)Cn2ccnc2)cc1 | > 100 | 96.2 | > 100 | 57.6 | > 100 | 66.6 | > 100 | > 100 | > 100 | > 100 | – | – | – | – | – | – | – | – | – | –
2 | OC(CC(O)(C(F)(F)Cl)C(F)(F)Cl)c1ccccc1 (centres undefined) | > 10 | > 10 | > 10 | > 10 | > 10 | > 10 | > 10 | > 10 | > 10 | > 10 | – | – | – | – | – | – | – | – | – | –
3 | CCN(CC)CCCCNc1c2ccc(Cl)cc2nc2ccc(OC)cc12 | 3.46 | 3.77 | 1.69 | 2.66 | 2.12 | 3.95 | 2.16 | 1.27 | 1.62 | – | 0.637 | 1.85 | 0.294 | 0.397 | 0.277 | 0.645 | 0.45 | 0.141 | 0.34 | 0.287
4 | CSc1nc(=O)c2nc(-c3cccs3)c(-c3cccs3)nc2n1C | > 100 | > 100 | > 100 | 89.1 | > 100 | > 100 | > 100 | > 100 | > 100 | > 100 | – | – | – | – | – | – | – | – | – | –
5 | O=C1CC[C@@]23CC(=O)O[C@@H]2CCCC3C1 (some centres undefined) | > 100 | > 100 | > 100 | > 100 | > 100 | > 100 | > 100 | > 100 | > 100 | > 100 | – | – | – | – | – | – | – | – | – | –
6 | CN(C)/N=N/c1nc2c(c(=O)n(C)c(=O)n2C)n1CC1CO1 (centres undefined) | 61.7 | 52.7 | 26.1 | 29.7 | 36.8 | 41.1 | 35.2 | 35.1 | 37.5 | 21.7 | – | – | – | – | – | – | – | – | – | –
7 | CC1=NN2C(=N)/C(=C/c3ccc(F)cc3)C(=O)N=C2S1 | > 100 | > 100 | > 100 | > 100 | > 100 | 28.5 | > 100 | > 100 | > 100 | > 100 | – | – | – | – | – | – | – | – | – | –
8 | O=c1c2c3c(sc2nc2n1N=C(c1ccc(Br)cc1)CS2)CCCC3 | > 100 | > 100 | > 100 | > 100 | > 100 | > 100 | > 100 | > 100 | > 100 | > 100 | – | – | – | – | – | – | – | – | – | –
9 | CC(C)=CCc1c(O)cc2oc(-c3ccc(O)cc3O)cc(=O)c2c1O | > 100 | > 76.2 | > 65.6 | 53.6 | > 100 | > 94.4 | > 100 | 49.8 | > 84.8 | > 100 | – | – | – | – | – | – | – | – | – | –
10 | CS(=O)(=O)Nc1ccc2ccccc2c1 | > 100 | > 100 | > 100 | > 100 | > 100 | > 100 | > 100 | > 100 | > 100 | > 100 | – | – | – | – | – | – | – | – | – | –
11 | CC1(C)C=C(/C=C2/N(S(=O)(=O)C(F)(F)F)C(/C=C3/N(S(=O)(=O)C(F)(F)F)C(C)(C#N)CC3(C)C)=CC2(C)C)N=C1/C=C1/CC(C)(C)C(=O)N1 (centres undefined) | > 100 | > 100 | > 100 | 27.9 | > 100 | > 100 | > 100 | > 100 | > 100 | > 100 | – | – | – | – | – | – | – | – | – | –
12 | NC(=O)c1ccc[n+](C2=C([O-])c3ccccc3C(=O)/C2=N\S(=O)(=O)c2ccccc2)c1 | > 100 | 28.8 | 29.6 | 24.1 | 30.7 | 36.3 | 29 | 34 | 34 | 47.9 | – | – | – | – | – | – | – | – | – | –
13 | CNC(=S)N1CCN(C(C)=O)C1=S | > 100 | 51.7 | > 100 | > 100 | > 100 | > 100 | 17.2 | > 100 | > 100 | > 100 | – | – | – | – | – | – | – | – | – | –
14 | NC(=O)C1CCN(Cc2c(Cl)c(Cl)c(CN3CCC(C(N)=O)CC3)c(Cl)c2Cl)CC1 | 46.5 | > 100 | > 100 | > 100 | > 100 | > 100 | > 100 | > 100 | > 100 | > 100 | – | – | – | – | – | – | – | – | – | –
15 | COc1ccc(-c2cc3cc(Cl)cc(Cl)c3oc2=O)cc1OC | > 100 | > 100 | > 100 | > 100 | > 100 | > 100 | > 100 | > 100 | > 100 | > 100 | – | – | – | – | – | – | – | – | – | –
16 | C/C(=C\CSCC(N)C(=O)O)CC/C=C(\C)CNc1ccccc1 (centres undefined) | > 100 | > 100 | > 100 | > 100 | > 100 | > 100 | > 100 | > 100 | > 100 | > 100 | – | – | – | – | – | – | – | – | – | –
